Reference: publication PMC11770630 (Journal of Medicinal Chemistry, 2025)

Columns and labels:
HCT116 cells [1] = settings: 24 h, safety limit cell viability >80%; for Cell viability (MTT), safety at 1 μM: HCT116, 1 μM; for Cell viability (MTT), safety above 5 μM: HCT116, 5 and 10 μM
MERLIN-HCT116 cells = experiment: MERLIN BRET biosensor assay of mitochondria-ER distance; type: cell-based, human
[2] = system: control and sALS lymphoblasts; experiment: Quantification of lipid droplets; type: cell-based, human; settings: control or sALS lymphoblasts, 5 μM for 24 h
[3] = system: lymphoblasts from sporadic ALS patients; experiment: Electron microscopy of lymphoblast cells; type: cell-based, human; settings: 5 μM for 24 h
[4] = system: control and sALS lymphoblasts; experiment: Cholesteryl-esters determination; type: cell-based, human; settings: control or sALS lymphoblasts, 5 μM for 24 h
HCT116 cells [5] = experiment: Extracellular NBD-cholesterol uptake in HCT116 cells; type: cell-based, human; settings: HCT116, 5 μM, after 3 h
[6] = system: ALS patient-derived lymphoblastic cell lines; experiment: Extracellular NBD-cholesterol uptake in patient lymphoblastic cell lines; type: cell-based, human; settings: SOD1-ALS lymphoblastoid cell lines, 5 μM, 24 h, NBD-cholesterol 1 h
sALS lymphoblasts = experiment: Mitochondrial oxygen consumption rate; type: cell-based, human; settings: 5 μM, 24 h

Compound	Cell viability (MTT), safety at 1 μM (HCT116 cells [1])	Cell viability (MTT), safety above 5 μM (HCT116 cells [1])	BBB passive permeation (PAMPA)	further results
O=C(Nc1cccc([N+](=O)[O-])c1)c1cc(Cl)ccc1O [Compound 29, 5-Chloro-2-hydroxy-N-(3-nitrophenyl)benzamide]	safe	cellular safety above 5 μM	demonstrated the capability to cross the BBB through passive permeation	–
O=C(Nc1ccc([N+](=O)[O-])cc1F)c1cc(Cl)ccc1O [Compound 2, 5-Chloro-N-(2-fluoro-4-nitrophenyl)-2-hydroxybenzamide]	safe	–	–	–
O=C(Nc1ccc([N+](=O)[O-])cc1Cl)c1cc(Cl)ccc1O [Compound 1, 5-Chloro-N-(2-chloro-4-nitrophenyl)-2-hydroxybenzamide, reference compound]	–	–	–	EC50 (MERLIN-HCT116 cells; Homo sapiens, read-out: EC50 (BRET), HTS hit): 8.36 µM
N#Cc1ccc(NC(=O)c2cc(Cl)ccc2O)cc1 [Compound 27, 5-Chloro-N-(4-cyanophenyl)-2-hydroxybenzamide]	safe	cellular safety above 5 μM	demonstrated the capability to cross the BBB through passive permeation	–
O=C(Nc1ccccc1)c1cc(Cl)ccc1O [Compound 24, 5-Chloro-2-hydroxy-N-phenylbenzamide]	safe	cellular safety above 5 μM	demonstrated the capability to cross the BBB through passive permeation	Lipid droplet levels [2]: increase the levels of lipid droplet; Number of MERCs (TEM) ([3]; lymphoblasts from sALS patients): rescued the number of contacts; Lipid droplets in cytosol (TEM) ([3]; sALS lymphoblasts): displayed large lipid droplets in their cytosol; Mitochondrial cristae structure (TEM) ([3]; sALS lymphoblasts): cristae structure was restored; Cholesteryl esters levels [4]: induce the formation of cholesteryl esters; Extracellular cholesterol uptake capacity (HCT116 cells [5]): significantly increased; Extracellular cholesterol uptake [6]: this change was not observed; Basal OCR (sALS lymphoblasts): successfully restored basal OCR levels; Spare respiratory capacity (sALS lymphoblasts): notable improvement in spare respiratory capacity; BRET signal change (individual data) (MERLIN-HCT116 cells; higher doses, normalized to DMSO (MOCK)): significant BRET increases at higher doses
O=C(Nc1ccc([N+](=O)[O-])cc1)c1cc(Cl)ccc1O [Compound 25, 5-Chloro-2-hydroxy-N-(4-nitrophenyl)benzamide]	–	–	demonstrated the capability to cross the BBB through passive permeation	–
